Assay results as given in article PMC11873037 (Nature Communications, 2025).

Experiments:
ChREBPα/14-3-3β [1] = target: T1, ChREBPα/14-3-3β (Homo sapiens, UniProt P31946+Q9NP71); assay: FA compound titration, stabilization of FITC-ChREBPα peptide/14-3-3β; format: binding; conditions: for stabilization of the ChREBPα/14-3-3 PPI, in words: FA-based compound titrations; for EC50: EC50, FITC-ChREBPα peptide 10 nM, 14-3-3β 150 nM, mean ± SD, n = 2
T1 sequence (P31946 1-246): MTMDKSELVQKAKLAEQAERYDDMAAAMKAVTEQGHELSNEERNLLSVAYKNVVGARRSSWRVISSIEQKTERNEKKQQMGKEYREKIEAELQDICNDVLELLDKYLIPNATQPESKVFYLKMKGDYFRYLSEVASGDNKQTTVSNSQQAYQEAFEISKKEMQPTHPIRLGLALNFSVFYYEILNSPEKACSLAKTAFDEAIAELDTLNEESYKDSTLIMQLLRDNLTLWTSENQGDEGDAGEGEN
T1 sequence (Q9NP71 117-142 limits assumed): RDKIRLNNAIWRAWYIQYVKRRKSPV

ChREBPβ [2] = assay: qPCR ChREBPβ mRNA in human islets; format: cell-based; conditions: 10 µM 43, 24 h; high glucose or glucolipotoxicity
[3] = system: BRAF, CRAF, p65, USP8, ERα, Pin1, ExoS peptides/14-3-3β; assay: FA selectivity studies, statement over all other client peptides; format: binding; conditions: up to 100 µM
ALDH1A3 = assay: qPCR ALDH1A3 mRNA in human islets; format: cell-based
ChREBPα/14-3-3β [4] = target: T1, ChREBPα/14-3-3β; assay: biochemical
INS-1 cells [5] = assay: kinetics of cell proliferation, total cell numbers; format: cell-based, rat; conditions: 10 μM 43
[6] = system: β-cell maturity markers or glucose sensing and processing genes; assay: qPCR other β-cell maturity markers or glucose sensing and processing genes; format: cell-based, human; conditions: 10 µM 43, 24 h
INS = assay: qPCR INS mRNA in human islets; format: cell-based; conditions: 10 µM 43, 24 h
INS-1 cells [7] = assay: cytotoxicity in low glucose; format: cell-based, rat
[8] = system: TAZ, ExoS, ERα, CRAF, ChREBP peptides/14-3-3 isoforms (γ, ζ, σ); format: binding; conditions: 100 µM 43
human TXNIP promoter = assay: luciferase reporter driven by the human TXNIP promoter in INS-1 cells; format: cell-based, rat; conditions: 10 µM 43, 24 h
ChREBPα/14-3-3 = assay: proximity ligation assay ChREBPα and pan 14-3-3; format: cell-based, rat; conditions: high (20 mM) glucose
ChREBP = target: T2, ChREBP (Rattus norvegicus, UniProt Q8VIP2); assay: CRISPR/Cas9 engineered INS-1 cells; format: cell-based; conditions: high glucose and glucolipotoxic conditions
T2 sequence (Q8VIP2 1-865): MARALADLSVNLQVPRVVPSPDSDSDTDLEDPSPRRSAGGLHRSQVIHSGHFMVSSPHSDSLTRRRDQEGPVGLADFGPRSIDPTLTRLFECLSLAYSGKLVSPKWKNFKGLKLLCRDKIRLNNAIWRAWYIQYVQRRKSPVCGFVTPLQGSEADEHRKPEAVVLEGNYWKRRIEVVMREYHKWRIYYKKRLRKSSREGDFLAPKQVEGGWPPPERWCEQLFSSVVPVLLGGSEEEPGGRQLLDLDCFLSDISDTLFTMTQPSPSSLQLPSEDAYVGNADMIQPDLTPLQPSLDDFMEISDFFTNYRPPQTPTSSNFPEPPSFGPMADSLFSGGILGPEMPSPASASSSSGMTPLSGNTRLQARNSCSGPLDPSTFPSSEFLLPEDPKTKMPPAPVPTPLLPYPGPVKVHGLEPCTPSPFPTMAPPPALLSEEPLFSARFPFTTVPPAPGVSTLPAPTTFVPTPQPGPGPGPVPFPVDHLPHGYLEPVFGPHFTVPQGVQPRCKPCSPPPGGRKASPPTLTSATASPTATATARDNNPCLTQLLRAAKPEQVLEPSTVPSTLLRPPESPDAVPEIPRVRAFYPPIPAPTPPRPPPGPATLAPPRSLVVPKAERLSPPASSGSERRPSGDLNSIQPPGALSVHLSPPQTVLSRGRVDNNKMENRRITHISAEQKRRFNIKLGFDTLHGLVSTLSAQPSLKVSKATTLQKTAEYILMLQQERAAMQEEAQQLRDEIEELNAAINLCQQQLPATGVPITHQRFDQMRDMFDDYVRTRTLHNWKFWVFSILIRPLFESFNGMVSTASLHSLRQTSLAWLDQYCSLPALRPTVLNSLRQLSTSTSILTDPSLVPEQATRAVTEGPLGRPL

ChREBPβ [9] = assay: immunostaining c-term ChREBP; format: cell-based, human; conditions: 48 h
ChREBPα/14-3-3β [10] = target: T1, ChREBPα/14-3-3β; conditions: fit of 2D titration with thermodynamic equilibrium model; compound 0–500 µM
PDX1 [11] = assay: immunostaining PDX1 protein in dispersed islets; format: cell-based, human; conditions: 48 h
ChREBPα = target: T3, ChREBPα (Rattus norvegicus, UniProt Q8VIP2); assay: immunostaining, nuclear localization of ChREBPα in INS-1 cells; format: cell-based
T3 sequence (Q8VIP2 1-865): T2 sequence (Q8VIP2 1-865)

[12] = system: ChREBPα/all seven 14-3-3 isoforms; assay: FA protein titrations, statement over all seven 14-3-3 isoforms; format: binding; conditions: 100 µM 43
primary human islets [13] = assay: insulin secretion stimulation index in response to KCl; format: cell-based; conditions: 30 mM KCl
human islets, β-cells = assay: SPARKL assay, β-cell death in glucolipotoxicity; format: cell-based; conditions: 10 µM; 20 mM glucose+500 μM palmitate
INS-1 cells [14] = assay: ATP/ADP measurements; format: cell-based, rat; conditions: 10 μM 43; high (20 mM) glucose
PDX1 [15] = assay: qPCR PDX1 mRNA in human islets; format: cell-based; conditions: 10 µM 43, 24 h
primary human islets [16] = assay: total insulin content; format: cell-based
[17] = system: dispersed human islet cells; assay: β-cell death after adenoviral ChREBPβ overexpression or shRNA; format: cell-based; conditions: 10 μM 43
INS-1 cells [18] = assay: calcium imaging; format: cell-based, rat
primary human islets [19] = assay: glucose-stimulated insulin secretion; format: cell-based; conditions: pre-treated 24 h, high glucose
NFATC1/14-3-3 = assay: proximity ligation assay NFATC1 and pan 14-3-3; format: cell-based, rat; conditions: 10 μM 43; high (20 mM) glucose
INS-1 cells [20] = assay: cell death in glucolipotoxic conditions; format: cell-based, rat; conditions: for cell death in glucolipotoxic conditions, dose response: 5 and 10 μM, 20 mM glucose+500 µM palmitate, 48 h

SMILES: O=C(COc1ccccc1P(=O)(O)O)NCCc1ccc(OCc2cccnc2)cc1 [compound 10]
- stabilization of the ChREBPα/14-3-3 PPI, in words (ChREBPα/14-3-3β [1]): increased the stabilization efficiency

SMILES: O=C(COc1ccccc1P(=O)(O)O)NCC(F)(F)c1cccc(F)c1 [compound 43]
- upregulation of ChREBPβ at mRNA level (ChREBPβ [2]): prevented upregulation of ChREBPβ
- effect on other 14-3-3 client peptides (selectivity) [3]: without affecting any other client peptide
- ALDH1A3 mRNA (ALDH1A3; high glucose or glucolipotoxicity): unaffected
- ALDH1A3 mRNA (ALDH1A3; low glucose): significantly decreased
- Kd (ChREBPα/14-3-3β [4]): 162 µM
- glucose-stimulated proliferation (INS-1 cells [5]): prevented glucose-stimulated proliferation
- other β-cell maturity markers or glucose sensing and processing genes [6]: unchanged
- INS mRNA downregulation (de-differentiation) in glucolipotoxicity (INS): this de-differentiation was prevented
- Cytotoxic in low [glucose] (INS-1 cells [7]): no cytotoxicity
- ChREBPα stabilization selectivity among 14-3-3 isoforms [8]: preserved
- glucose response of the TXNIP gene (human TXNIP promoter): prevents the glucose response of the TXNIP gene
- interaction between 14-3-3 and ChREBPα (PLA) (ChREBPα/14-3-3): remained unchanged
- build up of nuclear ChREBPβ, in words (ChREBP): prevents the built up of nuclear ChREBPβ
- Active in biochemical assays (ChREBPα/14-3-3β [1]): active in biochemical assays
- upregulation of ChREBPβ at protein level (ChREBPβ [9]): prevented upregulation of ChREBPβ
- cooperativity factor (α) (ChREBPα/14-3-3β [10]): 72
- PDX1 protein levels in glucolipotoxicity (PDX1 [11]): rescued
- nuclear translocation of ChREBPα (ChREBPα; glucose + palmitate): preventing ChREBPα’s nuclear translocation
- nuclear translocation of ChREBPα (ChREBPα; high glucose): blocked the transient translocation of ChREBPα
- PPI stabilization with 14-3-3 isoforms [12]: PPI stabilization among all isoforms
- SI in response to KCl (primary human islets [13]): no effect
- β-cell death in glucolipotoxic conditions, in words (human islets, β-cells): remarkable decrease in β-cell death
- ATP/ADP ratio (INS-1 cells [14]): enhanced mitochondrial activity
- PDX1 mRNA downregulation (de-differentiation) in glucolipotoxicity (PDX1 [15]): this de-differentiation was prevented
- insulin content (primary human islets [16]): no effect
- protection from apoptosis due to overexpression of ChREBPβ [17]: unable to protect human islet cells from apoptosis
- calcium upregulation in response to glucose (INS-1 cells [18]): no effect
- GSIS stimulation index, in words (primary human islets [19]): improved glucose-stimulated insulin secretion (GSIS) stimulation index (SI)
- 14-3-3 dissociation from NFATC1 (PLA) (NFATC1/14-3-3): glucose promoted 14-3-3 dissociation from NFATC1
- Rescue from glucolipotoxicity (INS-1 cells [20]): protected the β-cells from glucolipotoxicity
- glucolipotoxic cell death in INS-1 cells (INS-1 cells [20]; 10 µM 43, kinetics over 72 h): prevented
- cell death in glucolipotoxic conditions, dose response (INS-1 cells [20]): significant attenuation of cell death

SMILES: O=C(COc1ccccc1P(=O)(O)O)NCC(F)(F)c1ccc(F)c(F)c1 [compound 53]
- effect on other 14-3-3 client peptides (selectivity) [3]: without affecting any other client peptide
- Kd (ChREBPα/14-3-3β [4]): 110 µM
- Cytotoxic in low [glucose] (INS-1 cells [7]): no cytotoxicity
- Active in biochemical assays (ChREBPα/14-3-3β [1]): active in biochemical assays
- cooperativity factor (α) (ChREBPα/14-3-3β [10]): 126
- β-cell death in glucolipotoxic conditions, in words (human islets, β-cells): remarkable decrease in β-cell death
- Rescue from glucolipotoxicity (INS-1 cells [20]): protected the β-cells from glucolipotoxicity
- cell death in glucolipotoxic conditions, dose response (INS-1 cells [20]): significant attenuation of cell death

SMILES: NS(=O)(=O)c1ccccc1OCC(=O)NCCc1ccccc1 [compound 24]
- stabilization of the ChREBPα/14-3-3 PPI, in words (ChREBPα/14-3-3β [1]): inactive

SMILES: NC(=O)c1ncn([C@@H]2O[C@H](CO)[C@@H](O)[C@H]2O)c1N [AICAR, reference compound]
- nuclear translocation of ChREBPα (ChREBPα; 1 mM AICAR): translocation of ChREBPα is not blocked

SMILES: O=C(COc1ccccc1B(O)O)NCCc1ccccc1 [compound 23]
- stabilization of the ChREBPα/14-3-3 PPI, in words (ChREBPα/14-3-3β [1]): inactive

SMILES: O=C(COc1ccccc1P(=O)(O)O)NCCc1ccc(OCc2ccncc2)cc1 [compound 11]
- stabilization of the ChREBPα/14-3-3 PPI, in words (ChREBPα/14-3-3β [1]): increased the stabilization efficiency

SMILES: O=C(COc1ccc(OP(=O)(O)O)cc1)NCCc1ccccc1 [compound 19]
- EC50 (ChREBPα/14-3-3β [1]): 17.4 ± 3.2 µM

SMILES: O=C(COc1ccccc1P(=O)(O)O)NCCc1ccc(OCc2ccccn2)cc1 [compound 9]
- EC50 (ChREBPα/14-3-3β [1]): 7.6 ± 0.5 µM
- stabilization of the ChREBPα/14-3-3 PPI, in words (ChREBPα/14-3-3β [1]): increased the stabilization efficiency

SMILES: O=C(NCCc1ccccc1)C(Oc1ccccc1P(=O)(O)O)c1ccccc1 (stereo not drawn) [compound 12]
- Cytotoxic in low [glucose] (INS-1 cells [7]): neither generally cytotoxic
- Active in biochemical assays (ChREBPα/14-3-3β [1]): not active in the biochemical assay
- Rescue from glucolipotoxicity (INS-1 cells [20]): nor rescued the cells from glucolipotoxicity
